These results are taken from ChEMBL document CHEMBL4270519, “Synthesis and biological evaluation of β2-adrenoceptor agonists bearing the 2-amino-2-phenylethanol scaffold” (Eur J Med Chem, 2018).

Usually Emax stands for the maximal effect, on the per cent scale that the assay sets. What is called half-life is the time in which the quantity being followed falls by half. Higher therefore signals slow decline. For orientation: Papp A→B means the apparent permeability from the apical to the basolateral side of a cell layer. A word on the Papp B→A: it is the apparent permeability from the basolateral to the apical side of a cell layer.

Molecules are shown by their SMILES.

The target in data set [1] is T1, Beta-2 adrenergic receptor (Homo sapiens, UniProt P07550). Description: Agonist activity at human beta2 adrenergic receptor expressed in HEK293 cells assessed as increase in cAMP accumulation after 60 mins by HTRF assay. Type of data set: functional, cell-based. In general terms: Cyclic AMP is a second messenger, typically raised through Gs and lowered through Gi signalling.
Target sequence in this assay (P07550 whole entry): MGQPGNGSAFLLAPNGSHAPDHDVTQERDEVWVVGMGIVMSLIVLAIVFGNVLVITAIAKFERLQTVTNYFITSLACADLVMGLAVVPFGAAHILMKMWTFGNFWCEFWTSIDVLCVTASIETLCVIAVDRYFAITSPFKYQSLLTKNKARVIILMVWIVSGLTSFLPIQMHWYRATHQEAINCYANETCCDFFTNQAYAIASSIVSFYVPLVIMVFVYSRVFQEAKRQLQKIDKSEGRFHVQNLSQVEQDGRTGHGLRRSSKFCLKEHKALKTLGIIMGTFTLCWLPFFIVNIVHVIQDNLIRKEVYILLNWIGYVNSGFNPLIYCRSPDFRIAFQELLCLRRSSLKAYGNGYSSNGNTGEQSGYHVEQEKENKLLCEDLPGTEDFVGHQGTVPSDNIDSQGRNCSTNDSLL

The target of data set [2] is Beta-1 adrenergic receptor (Homo sapiens, UniProt P08588). Put plainly: Agonist activity at human beta1 adrenergic receptor expressed in HEK293 cells assessed as increase in cAMP accumulation after 60 mins by HTRF assay. Type of data set: functional, cell-based.
Data set [3] is filed under the species Homo sapiens. Put plainly: Selectivity ratio of pEC50 for human beta2 adrenergic receptor expressed in HEK293 cells to pEC50 for human beta1 adrenergic receptor expressed in HEK293 cells. Type of data set: cell-based.
Data set [4] in a line: Intrinsic clearance in human liver microsomes at 10 uM after 10 mins in presence of NADPH by LC/MS/MS analysis. Type of data set: ADME, microsome. The settings on record: read-out: CLH. A general note: Liver microsomes are vesicles of endoplasmic reticulum, rich in cytochrome P450 enzymes.
The subject of data set [5] is Smooth muscle of trachea. Put plainly: Reduction in histamine-induced muscle contractions in Dunkin-Hartley guinea pig tracheal smooth muscle ring by measuring muscle tone relative to control. It is filed as functional. The settings on record: Cavia porcellus.
Data set [6] can be described thus: Half life in human liver microsomes at 10 uM by LC/MS/MS analysis. It is filed as ADME, microsome.
Data set [7] concerns the target Beta-3 adrenergic receptor (Homo sapiens, UniProt P13945). Description: Agonist activity at human beta3 adrenergic receptor expressed in HEK293 cells assessed as increase in cAMP accumulation after 60 mins by HTRF assay. Type of data set: functional, cell-based.
Data set [8] has as its target T1, Beta-2 adrenergic receptor. Put plainly: Intrinsic activity at human beta2 adrenergic receptor in HEK293 cells assessed as increase in cAMP accumulation after 60 mins by HTRF assay relative to isoprenaline. Type of data set: functional, cell-based.
Target sequence in this assay (P07550 whole entry, looked up): as the sequence (P07550 whole entry) above
Data set [9] relates to Smooth muscle of trachea. Put plainly: Reduction in histamine-induced muscle contractions in Dunkin-Hartley guinea pig tracheal smooth muscle ring by measuring muscle tone. Type of data set: functional, Cavia porcellus.
Data set [10] has as its system Smooth muscle of trachea. Description: Intrinsic activity at Dunkin-Hartley guinea pig tracheal smooth muscle ring assessed as reduction in histamine-induced muscle contractions by measuring muscle tone relative to isoprenaline. It is filed as functional, Cavia porcellus.
The nature of data set [11]: Apparent permeability from apical to basolateral side in human Caco2 cells at 2 uM after 2 hrs by LC/MS/MS analysis. It is filed as ADME, cell-based. The settings on record: Caco-2. In general terms: Passage across Caco-2 layers is used to estimate intestinal permeability.
A short description of data set [12]: Apparent permeability from basolateral to apical side in human Caco2 cells at 2 uM after 2 hrs by LC/MS/MS analysis. The settings on record: Caco-2. Type of data set: ADME, cell-based.

Sequence of Beta-1 adrenergic receptor (P08588 whole entry): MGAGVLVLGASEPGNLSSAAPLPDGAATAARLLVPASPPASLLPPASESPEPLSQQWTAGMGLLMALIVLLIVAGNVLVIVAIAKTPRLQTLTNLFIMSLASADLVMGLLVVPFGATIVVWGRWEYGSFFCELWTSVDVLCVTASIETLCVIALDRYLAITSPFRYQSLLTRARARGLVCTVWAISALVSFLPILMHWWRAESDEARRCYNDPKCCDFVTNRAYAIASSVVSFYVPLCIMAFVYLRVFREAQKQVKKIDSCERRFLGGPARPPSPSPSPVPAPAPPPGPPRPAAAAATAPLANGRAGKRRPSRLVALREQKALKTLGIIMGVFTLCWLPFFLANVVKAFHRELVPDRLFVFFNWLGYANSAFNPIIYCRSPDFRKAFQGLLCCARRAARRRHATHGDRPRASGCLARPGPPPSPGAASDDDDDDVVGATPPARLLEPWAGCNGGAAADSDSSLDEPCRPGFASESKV
Sequence of Beta-3 adrenergic receptor (P13945 whole entry): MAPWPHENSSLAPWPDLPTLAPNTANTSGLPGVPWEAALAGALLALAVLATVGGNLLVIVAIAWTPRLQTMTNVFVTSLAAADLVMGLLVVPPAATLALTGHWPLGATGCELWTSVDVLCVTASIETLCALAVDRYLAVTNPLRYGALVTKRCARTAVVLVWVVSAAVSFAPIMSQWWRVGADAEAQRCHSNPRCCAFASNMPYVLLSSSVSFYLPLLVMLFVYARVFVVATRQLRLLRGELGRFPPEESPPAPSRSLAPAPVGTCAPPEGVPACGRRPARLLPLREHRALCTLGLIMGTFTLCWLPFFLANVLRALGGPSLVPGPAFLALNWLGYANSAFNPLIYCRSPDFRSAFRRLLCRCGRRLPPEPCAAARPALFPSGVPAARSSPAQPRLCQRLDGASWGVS

Take `O=c1ccc2c(C(CO)NCCc3c[nH]c4ccccc34)ccc(O)c2[nH]1` (stereo not drawn): the EC50 in [1] (read-out: pEC50 (converted)) was 316 nM.

Regarding `CCCCC(=O)Nc1ccc(CCNC(CO)c2ccc(O)c3[nH]c(=O)ccc23)cc1` (stereo not drawn), the EC50 in [1] (read-out: pEC50 (converted)) was 316 nM.

As for `O=c1ccc2c([C@H](CO)NCCc3ccc(O)cc3)ccc(O)c2[nH]1`, the EC50 in data set [1] (read-out: EC50) was found to be 328 nM.

As to `O=c1ccc2c(C(CO)NCCc3cccc(O)c3)ccc(O)c2[nH]1` (stereo not drawn), the EC50 in [1] (read-out: pEC50 (converted)) was 794 nM.

With `CC(C)CC(=O)Nc1ccc(CCNC(CO)c2ccc(O)c3[nH]c(=O)ccc23)cc1` (stereo not drawn), in data set [1] (read-out: pEC50 (converted)), the EC50 is 631 nM.

With `O=c1ccc2c(C(CO)NCCc3ccccc3Cl)ccc(O)c2[nH]1` (stereo not drawn), the EC50 in data set [2] was > 10000 nM; in data set [1] (read-out: pEC50 (converted)) it was 2 nM. For the same molecule, the Ratio in data set [3] is > 3.66.

Turning to `CC(C)NCC(O)c1ccc(O)c(O)c1` (stereo not drawn) [ISOPROTERENOL], the CLint scaled at 10 µM in data set [4] is 112 mL/min/kg. For the same molecule, in [5], the Emax was determined as 254%. In addition, in [6], the half-life at 10 µM was found to be 0.205 h.

For the molecule `O=c1ccc2c(C(CO)NCCCc3ccccc3)ccc(O)c2[nH]1` (stereo not drawn), the EC50 was 832 nM in [2], > 10000 nM in data set [7] and 10 nM in data set [1] (read-out: pEC50 (converted)). The Ratio in data set [3] was 1.89. For the same molecule, the Intrinsic activity in data set [8] was 55.8%.

As for `CC(C)C(=O)Nc1ccc(CCNC(CO)c2ccc(O)c3[nH]c(=O)ccc23)cc1` (stereo not drawn), the EC50 in data set [1] (read-out: pEC50 (converted)) was 50.1 nM.

Regarding `O=c1ccc2c(C(CO)NCCc3ccc(O)cc3)ccc(O)c2[nH]1` (stereo not drawn), the EC50 in data set [2] is > 10000 nM; in data set [7], > 10000 nM; in [1] (read-out: pEC50 (converted)), 3.16 nM. The molecule further displayed a pD2 in data set [9] of 7.98. Besides, the Ratio in data set [3] was > 3.5. The Intrinsic activity in data set [10] is 98%; in data set [8] it was 46.3%. The same molecule returned an Emax in data set [5] of 250%.

`CC(C)(Cc1ccccc1)NC(CO)c1ccc(O)c2[nH]c(=O)ccc12` (stereo not drawn): the figures for the EC50 in data set [2] and in [1] (read-out: pEC50 (converted)) were > 10000 nM and 50.1 nM, respectively. For the same molecule, the Ratio in data set [3] is > 2.28.

As to `O=c1ccc2c(C(CO)NCCc3cccc(Cl)c3)ccc(O)c2[nH]1` (stereo not drawn), the EC50 is 3160 nM in data set [2] and 2.51 nM in data set [1] (read-out: pEC50 (converted)). Also, in [3], the Ratio came out at 3.05.

For the molecule `O=c1ccc2c(C(CO)NCCc3ccccc3)ccc(O)c2[nH]1` (stereo not drawn), the values for the EC50 in data set [2], in [7] and in data set [1] (read-out: pEC50 (converted)) were 832 nM, > 10000 nM and 1.58 nM, respectively. The molecule further yielded a pD2 in [9] of 7.81. Further, the Ratio in [3] turned out to be 2.72. The Intrinsic activity in [10] worked out at 100%; in [8], 57.4%. In addition, the Emax in [5] stood at 255%.

As to `O=C(Cc1ccccc1)Nc1ccc(CCNC(CO)c2ccc(O)c3[nH]c(=O)ccc23)cc1` (stereo not drawn), in data set [1] (read-out: pEC50 (converted)), the EC50 is 3.98 nM.

Turning to `CCc1cc2c(cc1CC)CC(NC(CO)c1ccc(O)c3[nH]c(=O)ccc13)C2` (stereo not drawn), in data set [1] (read-out: pEC50 (converted)), the EC50 was 316 nM.

As to `O=c1ccc2c([C@@H](CO)NCCc3ccc(O)cc3)ccc(O)c2[nH]1`, the Papp A→B at 2 h, 2 µM in [11] was determined as 0.43 ×10⁻⁶ cm/s. Also, the Papp B→A at 2 h, 2 µM in data set [12] was 0.74 ×10⁻⁶ cm/s. Further, the EC50 in [1] (read-out: EC50) stood at 1.26 nM. Moreover, the CLint scaled at 10 µM in [4] turned out to be 11.5 mL/min/kg. Besides, the half-life at 10 µM in [6] turned out to be 1.81 h.

For the molecule `O=c1ccc2c(C(CO)NCCCCOCCCCc3ccccc3)ccc(O)c2[nH]1` (stereo not drawn), in data set [1] (read-out: pEC50 (converted)), the EC50 was 251 nM.

Consider `COc1ccc(CCNC(CO)c2ccc(O)c3[nH]c(=O)ccc23)cc1` (stereo not drawn), for which the EC50 was > 10000 nM in data set [2] and 20 nM in [1] (read-out: pEC50 (converted)). Further, the Ratio in data set [3] was > 2.71.

Take `COc1cccc(CCNC(CO)c2ccc(O)c3[nH]c(=O)ccc23)c1` (stereo not drawn): the EC50 was 631 nM in data set [2] and 2 nM in data set [1] (read-out: pEC50 (converted)). Further, the Ratio in data set [3] stood at 2.62. Besides, in [8], the Intrinsic activity came to 52.5%.

In the case of `O=c1ccc2c(C(CO)NCCCCCCOCCCCc3ccccc3)ccc(O)c2[nH]1` (stereo not drawn), the EC50 was > 10000 nM in [2] and 5.01 nM in data set [1] (read-out: pEC50 (converted)). Moreover, in data set [3], the Ratio is > 3.31.

In the case of `Nc1ccc(CCNC(CO)c2ccc(O)c3[nH]c(=O)ccc23)cc1` (stereo not drawn), the EC50 in data set [1] (read-out: pEC50 (converted)) was 79.4 nM.

For `O=c1ccc2c(C(CO)NCCc3ccccc3O)ccc(O)c2[nH]1` (stereo not drawn), the EC50 in [2] was > 10000 nM; in [1] (read-out: pEC50 (converted)) it was 10 nM. In data set [3], the Ratio was > 3.03. Moreover, the Intrinsic activity in data set [8] came out at 54.2%.

As for `O=c1ccc2c(C(CO)NCCc3ccc(Cl)cc3)ccc(O)c2[nH]1` (stereo not drawn), the EC50 in data set [2] is 1580 nM; in data set [1] (read-out: pEC50 (converted)), 39.8 nM. The Ratio in data set [3] amounted to 1.6.

`O=C(Nc1ccc(CCNC(CO)c2ccc(O)c3[nH]c(=O)ccc23)cc1)c1ccccc1` (stereo not drawn): the EC50 in data set [1] (read-out: pEC50 (converted)) was 50.1 nM.

Take `O=c1ccc2c(C(CO)NCC(c3ccccc3)c3ccccc3)ccc(O)c2[nH]1` (stereo not drawn): the EC50 in data set [1] (read-out: pEC50 (converted)) is 631 nM.

For the molecule `O=c1ccc2c(C(CO)NCCCCc3ccccc3)ccc(O)c2[nH]1` (stereo not drawn), the EC50 in data set [2] was > 10000 nM; in data set [1] (read-out: pEC50 (converted)) it was 12.6 nM. In data set [3], the Ratio is > 2.86.

`COc1ccccc1CCNC(CO)c1ccc(O)c2[nH]c(=O)ccc12` (stereo not drawn): the results for the EC50 in data set [2], in data set [7] and in data set [1] (read-out: pEC50 (converted)) were > 10000 nM, > 10000 nM and 5.01 nM, respectively. The pD2 in data set [9] is listed as 6.03. For the same molecule, in data set [3], the Ratio is > 3.3. Moreover, the Intrinsic activity in [10] was found to be 44%; in data set [8], 48.6%. The molecule further had an Emax in data set [5] of 111%.
